Test results reported in US9980479B2, “Method of reducing nematode damage” (Syngenta Crop Protection, LLC, priority 2004, dated 2018).
Like-named read-outs stand apart in the source and are kept apart here.

Columns and labels:
[1] = tested on: nematodes (Pratylenchus spp.); conditions: tomato; for % yield increase over check / Total average weight of tomatoes per treatment: at harvest; for % damage of roots: drench 1, 14, 27 and 40 days after transplantation
Protocol: (§1) Tomato plants are transplanted into a field infested with nematodes (Pratylenchus spp.) and treated with the treatments indicated in Table I below 1, 14, 27 and 40 days after transplantation. The products are applied by drenching 100 ml spray solution per plant. Plot size is 24 m^2 with 4 replicates. At harvest (up to 19 weeks later), all tomatoes are collected and weighted. The check is an untreated control.

[2] = tested on: nematodes (Meloidogyne spp.); conditions: tomato; for % yield increase over check / Total average weight of tomatoes per 100 plants: at harvest; for % average root galling: drench 1, 18, 32 and 46 days after transplantation
Protocol: as §1, with “(Meloidogyne” for “(Pratylenchus”, “IV” for “I”, “18, 32” for “14, 27”, “46” for “40”, “42.7” for “24”

Meloidogyne [3] = assay: Experiment 6: clay soil cup test, live 2nd stage nematodes from eggs; assay type: in vivo; conditions: applied solution 3 ppm, 15 days of incubation
Protocol: (§2) 50 grams of dry clay soil is put into plastic cups. The soil is treated by adding 50 ml of water containing given concentrations (in ppm) of chemicals to the soil. The soil and water is carefully mixed, and thereafter 1 ml of water containing 10.,000 eggs of Meloidogyne is added. After 15 days of incubation, the samples are analyzed for live 2nd stage nematodes by sieving the clay, and rinsing with tap water. The amount of rinseate is adjusted to 20 ml. From the 20 ml, 3 samples of 1 ml are taken and nematodes counted, using a counting chamber.

Meloidogyne [4] = assay: Experiment 5: sandy soil cup test, live 2nd stage nematodes from eggs; assay type: in vivo; conditions: applied solution 3 ppm, 15 days of incubation
Protocol: as §2, with “110 grams” for “50 grams”, “dry sandy” for “dry clay”, “adding 25” for “adding 50”, “carefully mixed” for “carefully mixed,”, “containing 12,000” for “containing 10.,000”, “the sand” for “the clay,”

[5] = tested on: nematodes (Meloidogyne spp.); conditions: tomato; for % yield increase over check / Total average weight of tomatoes per 100 plant in kgr: at harvest; for % root galling: drench 1, 18, 32 and 46 days after transplantation
Protocol: as §1, with “(Meloidogyne” for “(Pratylenchus”, “III” for “I”, “18, 32” for “14, 27”, “46” for “40”, “36.7” for “24”

[6] = tested on: nematodes (Pratylenchus spp.); conditions: tomato; for % yield increase over check / Total average weight of tomatoes per plant in gr: at harvest; for % damage of roots: drench 1, 14, 27 and 40 days after transplantation
Protocol: as §1, with “II” for “I”

Compound: O=C(O)CN(CCN(CC(=O)O)CC(=O)O)CC(=O)O [EDTA, ethylenediaminetetraacetic acid]
- % yield increase over check ([1]; 500 g ai/ha): 12%
- Total average weight of tomatoes per treatment ([1]; 500 g ai/ha): 784 kg
- % damage of roots ([1]; 500 g ai/ha): 25.8%
- % yield increase over check ([1]; 1000 g ai/ha): 17%
- Total average weight of tomatoes per treatment ([1]; 1000 g ai/ha): 817 kg
- % damage of roots ([1]; 1000 g ai/ha): 22.5%
- % yield increase over check ([2]; 500 g ai/ha): 6%
- Total average weight of tomatoes per 100 plants ([2]; 500 g ai/ha): 349 kg
- % average root galling ([2]; 500 g ai/ha): 34.4%
- % yield increase over check ([2]; 1000 g ai/ha): 10%
- Total average weight of tomatoes per 100 plants ([2]; 1000 g ai/ha): 360 kg
- % average root galling ([2]; 1000 g ai/ha): 23.7%
- % reduction of live stages (Meloidogyne [3]): 0.1%
- Number of live 2nd stage nematodes (Meloidogyne [3]): 1200
- % reduction of live stages (Meloidogyne [4]): 0.1%
- Number of live 2nd stage nematodes (Meloidogyne [4]): 1650

Compound: N,N′-ethylenebis(hydroxyphenyl)glycines [EDDHA]
- % yield increase over check ([5]; 500 g ai/ha): 13%
- Total average weight of tomatoes per 100 plant in kgr ([5]; 500 g ai/ha): 255 kgr
- % root galling ([5]; 500 g ai/ha): 35%
- % yield increase over check ([5]; 1000 g ai/ha): 17%
- Total average weight of tomatoes per 100 plant in kgr ([5]; 1000 g ai/ha): 265 kgr
- % root galling ([5]; 1000 g ai/ha): 26.1%
- % reduction of live stages (Meloidogyne [3]): 0.3%
- Number of live 2nd stage nematodes (Meloidogyne [3]): 1197
- % yield increase over check ([6]; 500 g ai/ha): 11%
- Total average weight of tomatoes per plant in gr ([6]; 500 g ai/ha): 3500 gr
- % damage of roots ([6]; 500 g ai/ha): 18.5%
- % yield increase over check ([6]; 1000 g ai/ha): 18%
- Total average weight of tomatoes per plant in gr ([6]; 1000 g ai/ha): 3695 gr
- % damage of roots ([6]; 1000 g ai/ha): 13.8%
- % reduction of live stages (Meloidogyne [4]): 0.1%
- Number of live 2nd stage nematodes (Meloidogyne [4]): 1649
